Tests used:
Format in all cases: in vivo
[1] = system: Kochia (Kochia scoparia); assay: Test A preemergence; details: for Plant response rating, Kochia: 125 g ai/ha; for Kochia plant response rating (0 to 100 scale): 0 is no effect, 100 is complete control; for Kochia plant response rating (0 to 100 scale, 0 is no effect, 100 is complete control): visual injury approx. 10 d
Source text: (§1) Seeds of plant species selected from barnyardgrass (Echinochloa crus-galli), Kochia (Kochia scoparia), ragweed (common ragweed, Ambrosia elatior), ryegrass, Italian (Italian ryegrass, Lolium multiflorum), crabgrass, large (Digitaria sanguinalis), giant foxtail (Setaria faberii), green foxtail (Setaria viridis), morningglory (Ipomoea spp.), pigweed (Amaranthus retroflexus), velvetleaf (Abutilon theophrasti), wheat (Triticum aestivum), and corn (Zea mays) were planted into a blend of loam soil and sand and treated preemergence with a directed soil spray using test chemicals formulated in anon-phytotoxic solvent mixture which included a surfactant.
(§2) At the same time, plants selected from these crop and weed species and also blackgrass (Alopecurus myosuroides), and Galium (catchweed bedstraw, Galium aparine) were planted in pots containing the same blend of loam soil and sand and treated with postemergence applications of test chemicals formulated in the same manner. Plants ranged in height from 2 to 10 cm and were in the one- to two-leaf stage for the postemergence treatment. Treated plants and untreated controls were maintained in a greenhouse for approximately 10 d, after which time all treated plants were compared to untreated controls and visually evaluated for injury. Plant response ratings, summarized in Table A, are based on a 0 to 100 scale where 0 is no effect and 100 is complete control. A dash (-) response means no test result.

[2] = system: pigweed (Amaranthus retroflexus); assay: Test A preemergence; details: for Plant response rating, Pigweed: 125 g ai/ha; for Pigweed plant response rating (0 to 100 scale): 0 is no effect, 100 is complete control; for Pigweed plant response rating (0 to 100 scale, 0 is no effect, 100 is complete control): visual injury approx. 10 d
Source text: as §1, §2

[3] = system: giant foxtail (Setaria faberii); assay: Test A preemergence; details: for Plant response rating, Foxtail, Giant: 125 g ai/ha; for Foxtail, Giant plant response rating (0 to 100 scale): 0 is no effect, 100 is complete control; for Foxtail, Giant plant response rating (0 to 100 scale, 0 is no effect, 100 is complete control): visual injury approx. 10 d
Source text: as §1, §2

[4] = system: ragweed (common ragweed, Ambrosia elatior); assay: Test A preemergence; details: for Plant response rating, Ragweed: 125 g ai/ha; for Ragweed plant response rating (0 to 100 scale): 0 is no effect, 100 is complete control; for Ragweed plant response rating (0 to 100 scale, 0 is no effect, 100 is complete control): visual injury approx. 10 d
Source text: as §1, §2

[5] = system: barnyardgrass (Echinochloa crus-galli); assay: Test A preemergence; details: for Plant response rating, Barnyardgrass: 125 g ai/ha; for Barnyardgrass plant response rating (0 to 100 scale): 0 is no effect, 100 is complete control; for Barnyardgrass plant response rating (0 to 100 scale, 0 is no effect, 100 is complete control): visual injury approx. 10 d
Source text: as §1, §2

[6] = system: ryegrass, Italian (Italian ryegrass, Lolium multiflorum); assay: Test A preemergence; details: for Plant response rating, Ryegrass, Italian: 125 g ai/ha; for Ryegrass, Italian plant response rating (0 to 100 scale): 0 is no effect, 100 is complete control; for Ryegrass, Italian plant response rating (0 to 100 scale, 0 is no effect, 100 is complete control): visual injury approx. 10 d
Source text: as §1, §2

[7] = system: corn (Zea mays); assay: Test A postemergence
Source text: as §1, §2

[8] = system: Kochia (Kochia scoparia); assay: Test A postemergence
Source text: as §1, §2

[9] = system: Galium (catchweed bedstraw, Galium aparine); assay: Test A postemergence
Source text: as §1, §2

[10] = system: pigweed (Amaranthus retroflexus); assay: Test A postemergence
Source text: as §1, §2

[11] = system: giant foxtail (Setaria faberii); assay: Test A postemergence
Source text: as §1, §2

[12] = system: ragweed (common ragweed, Ambrosia elatior); assay: Test A postemergence
Source text: as §1, §2

[13] = system: wheat (Triticum aestivum); assay: Test A postemergence
Source text: as §1, §2

[14] = system: barnyardgrass (Echinochloa crus-galli); assay: Test A postemergence
Source text: as §1, §2

[15] = system: blackgrass (Alopecurus myosuroides); assay: Test A postemergence
Source text: as §1, §2

[16] = system: ryegrass, Italian (Italian ryegrass, Lolium multiflorum); assay: Test A postemergence
Source text: as §1, §2

[17] = preemergence, 0 to 100 scale (0 no effect, 100 complete control)
[18] = 125 g ai/ha, postemergence, visual injury rating on 0 to 100 scale (0 no effect, 100 complete control), approx. 10 d
[19] = 500 g ai/ha, postemergence, 0 to 100 scale, 0 no effect, 100 complete control
[20] = Postemergence, 125 g ai/ha, visual injury, 0 to 100 scale (0 no effect, 100 complete control), approx. 10 d
[21] = 1000 g ai/ha, postemergence, 0 to 100 scale, 0 no effect, 100 complete control
[22] = Preemergence, visual injury after approximately 10 d, 0 to 100 scale where 0 is no effect and 100 is complete control
[23] = 125 g ai/ha, postemergence, visual rating after approx. 10 d, 0 to 100 scale (0 no effect, 100 complete control)
[24] = Postemergence, 500 g ai/ha, 0 to 100 scale where 0 is no effect and 100 is complete control

O=C1NCC(c2cccc(O)c2)C1C(=O)Nc1cccc(F)c1F (racemic) [Compound 384]
0: Plant response rating, Kochia [1, 17] | Kochia plant response rating (0 to 100 scale) ([1]; Preemergence, 500 g ai/ha) | Plant response rating, Pigweed [2, 17] | Pigweed plant response rating (0 to 100 scale) ([2]; Preemergence, 500 g ai/ha) | Plant response rating, Foxtail, Giant [3, 17] | Foxtail, Giant plant response rating (0 to 100 scale) ([3]; Preemergence, 500 g ai/ha) | Plant response rating, Ragweed [4, 17] | Ragweed plant response rating (0 to 100 scale) ([4]; Preemergence, 500 g ai/ha) | Plant response rating, Barnyardgrass [5, 17] | Barnyardgrass plant response rating (0 to 100 scale) ([5]; Preemergence, 500 g ai/ha) | Plant response rating, Ryegrass, Italian [6, 17] | Ryegrass, Italian plant response rating (0 to 100 scale) ([6]; Preemergence, 500 g ai/ha) | Corn plant response rating [7, 18] | Plant response rating, Corn [7, 19] | Kochia plant response rating [8, 18] | Plant response rating, Kochia [8, 19] | Galium plant response rating [9, 18] | Plant response rating, Galium [9, 19] | Pigweed plant response rating [10, 18] | Plant response rating, Pigweed [10, 19] | Foxtail, Giant plant response rating [11, 18] | Plant response rating, Foxtail, Giant [11, 19] | Ragweed plant response rating [12, 18] | Plant response rating, Ragweed [12, 19] | Wheat plant response rating [13, 18] | Plant response rating, Wheat [13, 19] | Plant response rating, Barnyardgrass [14, 19] | Plant response rating, Barnyardgrass [14, 20] | Plant response rating, Blackgrass [15, 19] | Plant response rating, Blackgrass [15, 20] | Ryegrass, Italian plant response rating [16, 18] | Plant response rating, Ryegrass, Italian [16, 19]

O=C(Nc1cccc(F)c1F)C1C(=O)N(CC=Cc2ccccc2)CC1c1cc(F)cc(F)c1 (stereo not shown) [Compound 511]
20: Plant response rating, Blackgrass [15, 21]
90: Foxtail, Giant plant response rating (0 to 100 scale) ([3]; Preemergence, 1000 g ai/ha) | Barnyardgrass plant response rating (0 to 100 scale) ([5]; Preemergence, 1000 g ai/ha) | Plant response rating, Foxtail, Giant [11, 21] | Plant response rating, Barnyardgrass [14, 21]
0: Kochia plant response rating (0 to 100 scale) ([1]; Preemergence, 1000 g ai/ha) | Pigweed plant response rating (0 to 100 scale) ([2]; Preemergence, 1000 g ai/ha) | Ragweed plant response rating (0 to 100 scale) ([4]; Preemergence, 1000 g ai/ha) | Ryegrass, Italian plant response rating (0 to 100 scale) ([6]; Preemergence, 1000 g ai/ha) | Plant response rating, Corn [7, 21] | Plant response rating, Kochia [8, 21] | Plant response rating, Galium [9, 21] | Plant response rating, Pigweed [10, 21] | Plant response rating, Ragweed [12, 21] | Plant response rating, Wheat [13, 21] | Plant response rating, Ryegrass, Italian [16, 21]

CN1CC(c2ccc(Br)cc2)C(C(=O)Nc2ccc(F)cc2F)C1=O (stereo not shown) [Compound 566]
0: Plant response rating, Corn [7, 23] | Plant response rating, Ragweed [12, 23] | Plant response rating, Wheat [13, 23]
40: Plant response rating, Corn [7, 24] | Plant response rating, Ragweed [12, 24] | Plant response rating, Wheat [13, 24]
20: Plant response rating, Ryegrass, Italian [6, 22] | Plant response rating, Blackgrass [15, 23]
70: Plant response rating, Kochia [1, 22] | Ryegrass, Italian plant response rating (0 to 100 scale, 0 is no effect, 100 is complete control) ([6]; Preemergence, 500 g ai/ha) | Plant response rating, Blackgrass [15, 24]
60: Plant response rating, Ragweed [4, 22] | Plant response rating, Galium [9, 23] | Plant response rating, Pigweed [10, 24] | Plant response rating, Ryegrass, Italian [16, 24]
80: Kochia plant response rating (0 to 100 scale, 0 is no effect, 100 is complete control) ([1]; Preemergence, 500 g ai/ha) | Plant response rating, Pigweed [2, 22] | Plant response rating, Kochia [8, 23] | Plant response rating, Kochia [8, 24] | Plant response rating, Galium [9, 24]
30: Plant response rating, Pigweed [10, 23] | Plant response rating, Ryegrass, Italian [16, 23]
100: Foxtail, Giant plant response rating (0 to 100 scale, 0 is no effect, 100 is complete control) ([3]; Preemergence, 500 g ai/ha) | Barnyardgrass plant response rating (0 to 100 scale, 0 is no effect, 100 is complete control) ([5]; Preemergence, 500 g ai/ha)
90: Pigweed plant response rating (0 to 100 scale, 0 is no effect, 100 is complete control) ([2]; Preemergence, 500 g ai/ha) | Plant response rating, Foxtail, Giant [3, 22] | Ragweed plant response rating (0 to 100 scale, 0 is no effect, 100 is complete control) ([4]; Preemergence, 500 g ai/ha) | Plant response rating, Barnyardgrass [5, 22] | Plant response rating, Foxtail, Giant [11, 23] | Plant response rating, Foxtail, Giant [11, 24] | Plant response rating, Barnyardgrass [14, 23] | Plant response rating, Barnyardgrass [14, 24]

CCc1cccc(C2CN(C)C(=O)C2C(=O)Nc2ccc(F)cc2F)c1 (stereo not shown) [Compound 570]
0: Plant response rating, Ragweed [4, 22] | Ragweed plant response rating (0 to 100 scale, 0 is no effect, 100 is complete control) ([4]; Preemergence, 500 g ai/ha) | Plant response rating, Ragweed [12, 23] | Plant response rating, Ragweed [12, 24]
100: Plant response rating, Foxtail, Giant [3, 22] | Foxtail, Giant plant response rating (0 to 100 scale, 0 is no effect, 100 is complete control) ([3]; Preemergence, 500 g ai/ha) | Plant response rating, Barnyardgrass [5, 22] | Barnyardgrass plant response rating (0 to 100 scale, 0 is no effect, 100 is complete control) ([5]; Preemergence, 500 g ai/ha) | Plant response rating, Barnyardgrass [14, 23] | Plant response rating, Barnyardgrass [14, 24]
90: Ryegrass, Italian plant response rating (0 to 100 scale, 0 is no effect, 100 is complete control) ([6]; Preemergence, 500 g ai/ha) | Plant response rating, Foxtail, Giant [11, 23] | Plant response rating, Foxtail, Giant [11, 24]
80: Kochia plant response rating (0 to 100 scale, 0 is no effect, 100 is complete control) ([1]; Preemergence, 500 g ai/ha) | Plant response rating, Corn [7, 24] | Plant response rating, Blackgrass [15, 24] | Plant response rating, Ryegrass, Italian [16, 24]
70: Pigweed plant response rating (0 to 100 scale, 0 is no effect, 100 is complete control) ([2]; Preemergence, 500 g ai/ha) | Plant response rating, Kochia [8, 24]
60: Plant response rating, Kochia [1, 22] | Plant response rating, Ryegrass, Italian [6, 22] | Plant response rating, Corn [7, 23] | Plant response rating, Galium [9, 24] | Plant response rating, Wheat [13, 24] | Plant response rating, Blackgrass [15, 23]
50: Plant response rating, Kochia [8, 23] | Plant response rating, Galium [9, 23] | Plant response rating, Ryegrass, Italian [16, 23]
40: Plant response rating, Pigweed [2, 22]
20: Plant response rating, Pigweed [10, 23] | Plant response rating, Pigweed [10, 24]
30: Plant response rating, Wheat [13, 23]

From patent publication US12077503B2, “Substituted cyclic amides and their use as herbicides” (FMC CORPORATION, priority 2015, dated 2024)
